From patent publication US3989746A, “Substituted naphthyl anthranilic acids” (Ikeda Mohando Co., Ltd., priority 1972, dated 1976)

How the values were obtained:
Carragheenin foot edema = assay: Carragheenin foot edema; assay type: in vivo, rats (male, Wister type); details: 100 mg/Kg oral, 1 h before carragheenin, foot volume 3 h after injection; for inhibition in vivo at 100 mg/kg: Rattus norvegicus, read-out: Anti-Inflammatory Effect Control Ratio, Carragheenin Foot Edema
Protocol: a. Carragheenin food edema
The test was conducted according to the method of C. […] Groups of rats (male rats of the Wister type having a body weight of 140-170 g), each group consisting of 5 to 11 rats, were caused to abstain from food for 16 hours, and a 4% gum arabic suspension of a test compound was orally administered to the rats in an amount of 100 mg/Kg. of the test compounds. Immediately, rats were allowed to drink 5 ml of purified water. […] After 3 hours had passed from the injection, the volume of the right foot was measured again to determine the increase of the volume of the right foot. In control groups, only a 4% gum arabic liquor free of a test compound was orally administered, and subsequent procedures were conducted similarly to determine the increase of the volume of the right foot. The carragheenin foot edema control ratio was calculated according to the following formula: [formula] wherein C indicates the foot volume increase in the control group and D indicates the foot volume increase in the test compound-administered group.

Ultraviolet erythema = assay: Ultraviolet erythema; assay type: in vivo, guinea pigs (male, Hartley type); details: 10 mg/Kg oral, 1 h before irradiation, read 3 h after irradiation; for inhibition in vivo at 10 mg/kg: Cavia porcellus, light or radiation study, read-out: Anti-Inflammatory Effect Control Ratio, Ultraviolet Erythema
Protocol: The test was conducted according to a modification of the method of C. […] Groups of guinea pigs (male guinea pigs of the Hartley type having a body weight of 300 to 450 g), each group consisting of 5 to 10 guinea pigs, were employed for the test. Hairs were removed from backs of the guinea pigs by an electric hair-clipper and a depilatory agent. The guinea pigs were caused to abstain from food for 18 to 19 hours, and a test compound was orally administered in an amount of 10 mg/Kg in the form suspended in a 4% gum arabic liquor. In the case of control groups, only a 4% gum arabic liquor was administered. An adhesive plaster according to the Japanese pharmacopoeia, on which three small holes having a diameter of 5 mm were opened, was applied to the hair-removed portion of the back. […] When 3 hours had passed from the irradiation, the degree of the formation of erythema was determined. One point was given to the guinea pig on which a definite round erythema was formed, a point of 0.5 was given to the guinea pig on which formation of erythema was observed but its contour was not definite, and a point of 0 was given to the guinea pig on which no erythema was formed. Total points were calculated in both the test compound-administered group and the control group, and the control ratio was calculated from these total points. [formula]

inflammatory pain = assay: Analgesic effect on inflammatory pain (modified Randall and Selitto); assay type: in vivo, rats (male, Wister type); details: 100 mg/Kg oral, 1 hour before carragheenin; pain measured 3 hours after injection
Protocol: Groups of male rats of the Wister type having a body weight of about 150 g were tested, each group consisting of 5 rats. The rats were caused to abstain from food overnight, and 0.05 ml of a 1% carragheenin solution was hypodermically injected into the right hind leg of each rat. […] The test compound was orally administered in a dosage of 100 mg/Kg 1 hour before the injection of carragheenin. [formula]

male mice = assay: in vivo; details: 7 days
Protocol: With respect to the foregoing test compounds, the acute toxicity was examined by employing mice according to the following method.
Groups of male mice of the dd type having a body weight of 18 to 22 g, each, group consisting of 5 mice, were tested to determine the acute toxicity. The test compound was orally administered in a dosage indicated in Table 3a in the form suspended in 5% gum arabic liquor. The determination was conducted 7 days after the administration. Further, the LD50 values were calculated according to the method of Lichfield-Wilcoxon.

Adjuvant arthritis = assay: Adjuvant arthritis; assay type: in vivo, rats (female, Wister type); details: 9 mg/Kg per day oral for 25 days, foot volume on 23rd day from adjuvant injection; for inhibition in vivo at 9 mg/kg: Rattus norvegicus, 552 h, read-out: Anti-Inflammatory Effect Control Ratio, Adjuvant Arthritis
Protocol: With respect to the foregoing compounds, anti-inflammatory effects against carragheenin foot edema, ultraviolet erythema and adjuvant arthritis were tested by using rate according to the following methods to obtain results shown below.
The test was conducted according to a modification of the method of B. B. Newbould (Brit. J. Pharmacol., 21, 127 (1963)). Groups of female rats of the Wister type having a body weight of 180 - 240 g, each group consisting of 4 to 8 rats, were tested. 0.05 ml of an adjuvant (formed by suspending 5 mg of dead tuberculous bacillus, Aoyama B strain, in 1 ml of fluid paraffin according to the Japanese pharmacopoeia) was hypodermically injected in the right foot heel of each rat. A test compound was orally administered in a dosage of 9 mg/Kg per day in the form suspended in a 5% gum arabic liquor continuously for 25 days from one day before the injection of the adjuvant. In the case of the control group, only a 5% gum arabic liquor was continuously administered in the same manner. The volume of the right foot was measured 1 day before the injection of the adjuvant and on the 23rd day from the injection of the adjuvant with respect to each group. Thus, the increase of the foot volume was calculated in either the test compound-administered group or the control group, and the ratio of control of the adjuvant arthritis was calculated according to the following formula: [formula] in which C is the increase of the volume of the right foot in the control group and D indicates the increase of the volume of the right foot in the test compound-administered rat group.

SMILES	inhibition in vivo at 100 mg/kg (Carragheenin foot edema)	inhibition in vivo at 10 mg/kg (Ultraviolet erythema)	Analgesic Coefficient (inflammatory pain)	Number of Dead Mice/Number of Mice Tested (male mice; 1 g/kg oral)	Number of Dead Mice/Number of Mice Tested (male mice; 2 g/kg oral)	Number of Dead Mice/Number of Mice Tested (male mice; 3 g/kg oral)	Anti-Inflammatory Effect Control Ratio, Carragheenin Foot Edema (Carragheenin foot edema)	Anti-Inflammatory Effect Control Ratio, Ultraviolet Erythema (Ultraviolet erythema)	Anti-Inflammatory Effect Control Ratio, Adjuvant Arthritis (Adjuvant arthritis)	inhibition in vivo at 9 mg/kg (Adjuvant arthritis)	Number of Dead Mice/Number of Mice Tested (male mice; 4 g/kg oral)
CCCCCCc1ccc2ccccc2c1Nc1ccccc1C(=O)O [2 Hexyl-, N-(2-n-hexyl-naphthyl-1)anthranilic acid]	8.5%	44%	1.28	0 /10	0 /10	0 /10					
CCCCc1ccc(Nc2ccccc2C(=O)O)c2ccccc12 [4 Butyl-]			1.41	0 /10	0 /10	5 /10	16.8%	22.3%	1.3%		
CCc1ccc(Nc2ccccc2C(=O)O)c2ccccc12 [4 Ethyl-]			1.20	0 /10	2 /10	4 /10	46.2%	60.0%	21.5%		
CC(C)Cc1ccc(Nc2ccccc2C(=O)O)c2ccccc12 [4 iso Butyl-, N-(4-isobutyl-naphthyl-1)anthranilic acid]			1.37	0 /10	0 /10	2 /10	41.9%	43.8%	31.0%		
O=C(O)c1ccccc1Nc1c(Cl)ccc2ccccc12 [Compound 3, N-(2-chloro-1-naphthyl)anthranilic acid]	46.6%	66.7%	1.62	0 / 5	2 / 5	4 / 5				36.9%	5 / 5
O=C(O)c1ccccc1Nc1c(F)ccc2ccccc12 [Compound 4, N-(2-fluoro-1-naphthyl)anthranilic acid]	27.6%	48.7%	1.60	0 / 5	0 / 5	5 / 5				50%	5 / 5
O=C(O)c1ccccc1Nc1cc(Cl)cc2ccccc12 [Compound 5, N-(3-chloro-1-naphthyl)anthranilic acid]	31.4%	40%	1.31	0 / 5	0 / 5	4 / 5				41.4%	5 / 5
Cc1cc(Nc2ccccc2C(=O)O)c2ccccc2c1C [Compound 6, N-(3,4-dimethyl-1-naphthyl)anthranilic acid]	47.1%	17.1%	1.28	0 / 5	2 / 5	5 / 5				17.2%	5 / 5
O=C(O)c1ccccc1Nc1cc(F)cc2ccccc12 [Compound 7, N-(3-fluoro-1-naphthyl)anthranilic acid]	35.4%	44%	1.70		1 / 5	5 / 5				36.1%	
Cc1cc(Nc2ccccc2C(=O)O)c2ccccc2c1 [Compound 9, N-(3-methyl-1-naphthyl)anthranilic acid]	44.3%	46.3%		0 / 5	3 / 5	5 / 5					
